Assay results as given in patent publication US7947688B2, “N-[3-(3-substituted-pyrazolo[1,5-a]pyrimidin-7-yl)phenyl]-sulfonamides, and compositions, and methods related thereto” (Ferrer Internacional, S.A., priority 2003, dated 2011).

Key:
male CD1 mice = assay: Predictive sedation-hypnosis test in mice (motor activity, crossings); assay type: in vivo; conditions: single equimolecular intraperitoneal dose, crossings over 30 min after dosing (first 5 min discarded) versus control
Experimental: • In vivo determination of predictive sedative-hypnotic action.
The in vivo effects of these compounds were assessed by a predictive sedation-hypnosis test in mice (D. J. Sanger et al., Eur. J. Pharmacol., 313, 35-42, 1996; and G. Griebel et al., Psychopharmacology, 146, 205-213, 1999). Groups of 5-8 male CD1 mice, weighing 22-26 g at the time of test, were used. The test compounds were administered in single equimolecular intraperitoneal doses, suspended in 0.25% agar with one drop of Tween in a volume of 10 ml/kg. Control animals received the vehicle alone. Using an Actisystem DAS16 (Panlab, S. L., Spain) the crossings (number of counts) were recorded for each mouse at 5-min intervals during a period of 30 minutes after dosing. The inhibition percentage of crossings of treated animals versus control animals (the first 5 min were discarded) was calculated.

α2-GABAA receptor = α2-GABAA receptor (Rattus norvegicus, UniProt P18508+P23576); assay: Ligand-binding assay, radiolabeled flumazenil competition, rat spinal cord membranes; conditions: for inhibition at 10 µM: read-out: % Inhibition (10^−5 M), affinity for α2-GABAA receptor; for inhibition at 0.1 µM: read-out: % Inhibition (10^−7 M), affinity for α2-GABAA receptor
Experimental: Determination of the affinity of test compounds for α1- and α2-GABAA receptor.
Male Sprague-Dawley rats weighing 200-250 g at the time of experiment were used. After decapitation of the animal, the cerebellum (tissue that mostly contains α1-GABAA receptor) and spinal cord (tissue that mostly contains α2-GABAA receptor) were removed. The membranes were prepared according to the method by J. Lameh et al. (Prog. Neuro-Psychopharmacol. Biol. Psychiatry, 24, 979-991, 2000). Once the tissues weighed, they were suspended in 50 mM Tris.HCl (pH 7.7), 1:40 (v/v), homogenized and then centrifuged at 20000 g for 10 min at 7° C. The resulting pellet was resuspended under the same conditions and centrifuged again. The pellet was finally resuspended on a minimum volume and kept at −80° C. overnight. On the next day, the process was repeated until the final pellet was resuspended at a ratio of 1:10 (v/v).
Affinity was determined by competitive tests using radiolabeled flumazenil as ligand. The tests were performed according to the methods described by S. Arbilla et al. (Eur. J. Pharmacol., 130, 257-263, 1986); and Y. Wu et al. (Eur. J. Pharmacol., 278, 125-132, 1995). The membranes containing the study receptors, flumazenil (radiolabeling at a final concentration of 1 nM) and ascending concentrations of test compounds (in a total volume of 500 μl in […] [ph 7.4] Tris.HCl buffer) were incubated. Simultaneously, the membranes were only incubated with the radiolabeled flumazenil (total binding, 100%) and in the presence of an elevated concentration of unradiolabeled flumazenil (non-specific binding, % estimation of radiolabeled ligand). The reactions started on adding the radiolabeled ligand followed by incubation for 60 minutes at 0° C. At the end of the incubation period, the tubes were filtered using a Brandel Mod. M-48R harvester and then washed three times with cold test buffer. The harvester was fitted with a GF/B filter that retained the membranes containing the receptors and the radiolabeled ligand which had been bound to the receptors. Then the filters were removed and left till dry. Once dried, the filters were cut, placed in vials with scintillation liquid and left under stirring overnight. The next day the filters were counted using a Packard Mod. Tricarb scintillation counter.
X: amount of bound ligand for every concentration of compound.
T: total binding, maximum amount bound to the radiolabeled ligand.
N: non-specific binding, amount of radiolabeled ligand bound in a non-specific way irrespective of the receptor used.
Every concentrations of compound were tested in duplicate and their mean values were used to determine the experimental values of % specific binding versus the concentration of compound. […] Inhibition constants (Ki) were calculated from the IC50 values according to Cheng-Prusoff's formula (Y. Cheng y W. H. Prusoff, Biochem. Pharmacol., 22(23), 3099-3108, 1973).

CN(c1cccc(-c2ccnc3c(C#N)cnn23)c1)S(C)(=O)=O [Example 2, N-[3-(3-cyano-pyrazolo[1,5-a]pyrimidin-7-yl)-phenyl]-N-methyl-methanesulfonamide]
melting point: 193 to 195 °C
% Motor Activity Inhibition (male CD1 mice): 71.39%

Cc1nc(C)c(S(=O)(=O)N(C)c2cccc(-c3ccnc4c(C(=O)c5cccs5)cnn34)c2)s1 [Example 91]
inhibition at 10 µM (α2-GABAA receptor): 84.1%
inhibition at 0.1 µM (α2-GABAA receptor): 4.8%
% Motor Activity Inhibition (male CD1 mice): 72.85%

CN(c1cccc(-c2ccnc3c(C(=O)c4cccs4)cnn23)c1)S(=O)(=O)c1ccc(Cl)cc1 [Example 79, N-methyl-N-{3-[3-(thiophene-2-carbonyl)-pyrazolo[1,5-a]pyrimidin-7-yl]-phenyl}-4-chlorobenzenesulfonamide]
inhibition at 10 µM (α2-GABAA receptor): 52.9%
inhibition at 0.1 µM (α2-GABAA receptor): 0%
% Motor Activity Inhibition (male CD1 mice): 51.50%

CCN(c1cccc(-c2ccnc3c(C(=O)c4ccc(C)cc4)cnn23)c1)S(C)(=O)=O [Example 64, N-ethyl-N-{3-[3-(4-methylbenzoyl)-pyrazolo[1,5-a]pyrimidin-7-yl]-phenyl}-methanesulfonamide]
inhibition at 10 µM (α2-GABAA receptor): 61.5%
inhibition at 0.1 µM (α2-GABAA receptor): 20.9%
% Motor Activity Inhibition (male CD1 mice): 90.32%

CCN(c1cccc(-c2ccnc3c(C(=O)c4cccs4)cnn23)c1)S(=O)(=O)C(C)C [Example 24, N-ethyl-N-{3-[3-(thiophene-2-carbonyl)-pyrazolo[1,5-a]pyrimidin-7-yl]-phenyl}-2-propane-sulfonamide]
inhibition at 10 µM (α2-GABAA receptor): 83%
inhibition at 0.1 µM (α2-GABAA receptor): 10.4%
% Motor Activity Inhibition (male CD1 mice): 94.01%

CCN(c1cccc(-c2ccnc3c(C(=O)c4ccc(F)cc4)cnn23)c1)S(C)(=O)=O [Example 52, N-ethyl-N-{3-[3-(fluorobenzene-4-carbonyl)-pyrazolo[1,5-a]pyrimidin-7-yl]-phenyl}-methanesulfonamide]
inhibition at 10 µM (α2-GABAA receptor): 61.2%
inhibition at 0.1 µM (α2-GABAA receptor): 0%
% Motor Activity Inhibition (male CD1 mice): 92.83%

CN(c1cccc(-c2ccnc3c(C(=O)c4cccs4)cnn23)c1)S(=O)(=O)CC(F)(F)F [Example 76, N-methyl-N-{3-[3-(thiophene-2-carbonyl)-pyrazolo[1,5-a]pyrimidin-7-yl]-phenyl}-2,2,2-trifluoroethane-sulfonamide]
inhibition at 10 µM (α2-GABAA receptor): 41.7%
inhibition at 0.1 µM (α2-GABAA receptor): 0%
% Motor Activity Inhibition (male CD1 mice): 78.36%

CCN(c1cccc(-c2ccnc3c(C(=O)c4ccc(OC)cc4)cnn23)c1)S(C)(=O)=O [Example 58, N-ethyl-N-{3-[3-(4-methoxybenzoyl)-pyrazolo[1,5-a]pyrimidin-7-yl]-phenyl}-methanesulfonamide]
inhibition at 10 µM (α2-GABAA receptor): 93.8%
inhibition at 0.1 µM (α2-GABAA receptor): 24%
% Motor Activity Inhibition (male CD1 mice): 93.31%

C#CCN(c1cccc(-c2ccnc3c(C#N)cnn23)c1)S(=O)(=O)C(C)C [Example 30, N-[3-(3-cyano-pyrazolo[1,5-a]pyrimidin-7-yl)-phenyl]-N-2-propynyl-propane-2-sulfonamide]
inhibition at 10 µM (α2-GABAA receptor): 73.3%
inhibition at 0.1 µM (α2-GABAA receptor): 0%
% Motor Activity Inhibition (male CD1 mice): 94.86%

O=C(c1cccs1)c1cnn2c(-c3cccc(N4CCCS4(=O)=O)c3)ccnc12 [Example 22, 7-(3-(2-isothiazolidinyl-1,1-dioxide)-phenyl)-3-(thiophene-2-carbonyl)-pyrazolo[1,5-a]pyrimidine]
inhibition at 10 µM (α2-GABAA receptor): 98.2%
inhibition at 0.1 µM (α2-GABAA receptor): 24.2%
% Motor Activity Inhibition (male CD1 mice): 91.39%

CC(C)S(=O)(=O)N(C)c1cccc(-c2ccnc3c(C(=O)c4cccs4)cnn23)c1 [Example 23, N-methyl-N-{3-[3-(thiophene-2-carbonyl)-pyrazolo[1,5-a]pyrimidin-7-yl]-phenyl}-2-propane-sulfonamide]
inhibition at 10 µM (α2-GABAA receptor): 93.8%
inhibition at 0.1 µM (α2-GABAA receptor): 45.5%
% Motor Activity Inhibition (male CD1 mice): 94.57%

CN(c1cccc(-c2ccnc3c(C(=O)c4ccccc4)cnn23)c1)S(C)(=O)=O [Example 69, N-methyl-N-{3-[3-(benzoyl)-pyrazolo[1,5-a]pyrimidin-7-yl]-phenyl}-methanesulfonamide]
inhibition at 10 µM (α2-GABAA receptor): 99%
inhibition at 0.1 µM (α2-GABAA receptor): 36.7%
% Motor Activity Inhibition (male CD1 mice): 96.90%

CN(c1cccc(-c2ccnc3c(C(=O)c4cccs4)cnn23)c1)S(=O)(=O)c1ccc(C#N)cc1 [Example 84, N-methyl-N-{3-[3-(thiophene-2-carbonyl)-pyrazolo[1,5-a]pyrimidin-7-yl]-phenyl}-4-cyanobenzene-sulfonamide]
inhibition at 10 µM (α2-GABAA receptor): 89.5%
inhibition at 0.1 µM (α2-GABAA receptor): 0%
% Motor Activity Inhibition (male CD1 mice): 68.98%

C#CCN(c1cccc(-c2ccnc3c(C#N)cnn23)c1)S(=O)(=O)CC [Example 38, N-[3-(3-cyano-pyrazolo[1,5-a]pyrimidin-7-yl)-phenyl]-N-2-propynyl-ethanesulfonamide]
inhibition at 10 µM (α2-GABAA receptor): 77.6%
inhibition at 0.1 µM (α2-GABAA receptor): 17.4%
% Motor Activity Inhibition (male CD1 mice): 94.85%

CN(c1cccc(-c2ccnc3c(C(=O)c4cccs4)cnn23)c1)S(=O)(=O)c1ccccc1Cl [Example 77, N-methyl-N-{3-[3-(thiophene-2-carbonyl)-pyrazolo[1,5-a]pyrimidin-7-yl]-phenyl}-2-chlorobenzene-sulfonamide]
inhibition at 10 µM (α2-GABAA receptor): 88.5%
inhibition at 0.1 µM (α2-GABAA receptor): 13.8%
% Motor Activity Inhibition (male CD1 mice): 70.12%

C=CS(=O)(=O)N(C)c1cccc(-c2ccnc3c(C(=O)c4cccs4)cnn23)c1 [Example 94, N-methyl-N-{3-[3-(thiophene-2-carbonyl)-pyrazolo[1,5-a]pyrimidin-7-yl]-phenyl}-vinylsulfonamide]
inhibition at 10 µM (α2-GABAA receptor): 99.5%
inhibition at 0.1 µM (α2-GABAA receptor): 41.2%
% Motor Activity Inhibition (male CD1 mice): 88.69%

CCN(c1cccc(-c2ccnc3c(C(=O)c4ccccc4)cnn23)c1)S(=O)(=O)CC [Example 72, N-ethyl-N-{3-[3-(benzoyl)-pyrazolo[1,5-a]pyrimidin-7-yl]-phenyl}-ethanesulfonamide]
inhibition at 10 µM (α2-GABAA receptor): 98.6%
inhibition at 0.1 µM (α2-GABAA receptor): 44.9%
% Motor Activity Inhibition (male CD1 mice): 93.78%

CN(c1cccc(-c2ccnc3c(C(=O)c4cccs4)cnn23)c1)S(=O)(=O)c1ccccc1C#N [Example 82, N-methyl-N-{3-[3-(thiophene-2-carbonyl)-pyrazolo[1,5-a]pyrimidin-7-yl]-phenyl}-2-cyanobenzene-sulfonamide]
inhibition at 10 µM (α2-GABAA receptor): 31.8%
inhibition at 0.1 µM (α2-GABAA receptor): 0%
% Motor Activity Inhibition (male CD1 mice): 39.87%

CCS(=O)(=O)N(C)c1cccc(-c2ccnc3c(C(=O)c4ccc(F)cc4)cnn23)c1 [Example 53, N-methyl-N-{3-[3-(fluorobenzene-4-carbonyl)-pyrazolo[1,5-a]pyrimidin-7-yl]-phenyl}-ethanesulfonamide]
inhibition at 10 µM (α2-GABAA receptor): 89.8%
inhibition at 0.1 µM (α2-GABAA receptor): 1%
% Motor Activity Inhibition (male CD1 mice): 94.89%

C#CCN(c1cccc(-c2ccnc3c(C#N)cnn23)c1)S(C)(=O)=O [Example 27, N-[3-(3-cyano-pyrazolo[1,5-a]pyrimidin-7-yl)-phenyl]-N-2-propynyl-methanesulfonamide]
inhibition at 10 µM (α2-GABAA receptor): 85.2%
inhibition at 0.1 µM (α2-GABAA receptor): 2.9%
% Motor Activity Inhibition (male CD1 mice): 93.12%

CCCN(c1cccc(-c2ccnc3c(C#N)cnn23)c1)S(=O)(=O)C(C)C [Example 37, N-[3-(3-cyano-pyrazolo[1,5-a]pyrimidin-7-yl)-phenyl]-N-propyl-2-propanesulfonamide]
inhibition at 10 µM (α2-GABAA receptor): 40.2%
inhibition at 0.1 µM (α2-GABAA receptor): 0%
% Motor Activity Inhibition (male CD1 mice): 92.13%

CN(c1cccc(-c2ccnc3c(C(=O)c4cccs4)cnn23)c1)S(=O)(=O)c1cccc(C#N)c1 [Example 83, N-methyl-N-{3-[3-(thiophene-2-carbonyl)-pyrazolo[1,5-a]pyrimidin-7-yl]-phenyl}-3-cyanobenzene-sulfonamide]
inhibition at 10 µM (α2-GABAA receptor): 94.4%
inhibition at 0.1 µM (α2-GABAA receptor): 39.1%
% Motor Activity Inhibition (male CD1 mice): 53.38%
